# Where “and” joins values, the source holds several entries; their conditions need not be identical. Identical values can stand only once.
# Biological target: EGFR (UniProt P00533)
# Sequence (P00533 whole entry, looked up): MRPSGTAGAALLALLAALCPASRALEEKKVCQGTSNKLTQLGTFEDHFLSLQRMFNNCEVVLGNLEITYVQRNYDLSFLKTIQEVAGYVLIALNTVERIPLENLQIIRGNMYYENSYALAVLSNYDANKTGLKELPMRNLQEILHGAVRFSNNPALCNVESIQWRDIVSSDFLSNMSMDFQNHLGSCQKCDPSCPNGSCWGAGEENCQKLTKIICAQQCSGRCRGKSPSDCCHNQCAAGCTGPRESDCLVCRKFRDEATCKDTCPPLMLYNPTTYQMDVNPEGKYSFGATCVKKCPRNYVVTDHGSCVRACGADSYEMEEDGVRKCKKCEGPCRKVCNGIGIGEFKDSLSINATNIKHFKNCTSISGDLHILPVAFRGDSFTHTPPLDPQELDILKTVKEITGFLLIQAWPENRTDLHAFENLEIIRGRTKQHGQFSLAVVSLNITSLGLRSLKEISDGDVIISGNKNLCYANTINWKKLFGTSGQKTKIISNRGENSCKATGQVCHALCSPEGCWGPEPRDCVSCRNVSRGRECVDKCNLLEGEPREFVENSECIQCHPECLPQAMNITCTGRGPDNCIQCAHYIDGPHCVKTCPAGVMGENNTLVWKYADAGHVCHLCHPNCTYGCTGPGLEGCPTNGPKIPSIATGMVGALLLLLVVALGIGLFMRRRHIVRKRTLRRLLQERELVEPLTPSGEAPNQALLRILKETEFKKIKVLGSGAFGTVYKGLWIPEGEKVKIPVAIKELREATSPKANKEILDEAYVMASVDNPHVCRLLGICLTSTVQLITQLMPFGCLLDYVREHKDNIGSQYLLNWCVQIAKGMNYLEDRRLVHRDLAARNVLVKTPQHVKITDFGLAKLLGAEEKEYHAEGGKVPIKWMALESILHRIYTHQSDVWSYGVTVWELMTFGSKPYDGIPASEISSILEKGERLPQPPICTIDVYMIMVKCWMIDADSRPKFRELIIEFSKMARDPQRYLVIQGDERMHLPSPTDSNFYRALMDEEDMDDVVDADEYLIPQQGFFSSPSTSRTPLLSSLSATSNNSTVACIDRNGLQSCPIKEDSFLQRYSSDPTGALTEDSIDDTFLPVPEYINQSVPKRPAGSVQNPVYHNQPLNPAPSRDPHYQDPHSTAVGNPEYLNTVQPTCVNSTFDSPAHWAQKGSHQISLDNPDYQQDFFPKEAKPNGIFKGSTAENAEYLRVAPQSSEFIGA
row,Compound,IC50
1,COc1cc(Nc2ncnc(-n3c(Nc4ccccc4C)nc4ccccc43)n2)cc(OC)c1OC,3.5 to 4.5 µg/mL
2,Cc1nccc(-c2cccc(Nc3ncnc(Nc4ccc5c(cnn5Cc5ccccc5)c4)n3)c2)n1,< 0.4 µg/mL
3,COc1cc(Nc2ncnc(Nc3cc(OC)c(OC)c(OC)c3)n2)cc(OC)c1OC,3.5 to 4.5 µg/mL
4,COc1cc(Nc2ncnc(Nc3ccc(F)c(Cl)c3)n2)cc(OC)c1OC,< 0.4 µg/mL
5,COc1cc(Nc2ncnc(-n3c(NCc4ncccc4C)nc4ccccc43)n2)cc(OC)c1OC,> 4.5 µg/mL
6,COc1ccc(Nc2ncnc(N(C)CCc3ccccn3)n2)cc1OC,0.4 to 2.4 µg/mL
7,COc1cc(Nc2ncnc(Nc3cc(-c4cccc(C)c4)n[nH]3)n2)cc(OC)c1OC,0.4 to 2.4 µg/mL
8,COc1cc(Nc2ncnc(Nc3ccc4c(c3)Cc3ccccc3-4)n2)cc(OC)c1OC,> 4.5 µg/mL
9,COc1cc(Nc2ncnc(Nc3cc(Cl)ccc3C)n2)cc(OC)c1OC,< 0.4 µg/mL
10,COCCOc1ccc(Nc2ncnc(Nc3ccc(C)c(F)c3)n2)cc1OCCOC,> 4.5 µg/mL
11,COc1cc(Nc2ncnc(-n3c(NCc4cccc(F)c4)nc4ccccc43)n2)cc(OC)c1OC,3.5 to 4.5 µg/mL
12,COc1cc(Nc2ncnc(Nc3nc4ccc(F)cc4s3)n2)cc(OC)c1OC,> 4.5 µg/mL
13,COc1cc(Nc2ncnc(-c3cccnc3NCc3ccccc3)n2)cc(OC)c1OC,> 4.5 µg/mL
14,Fc1cccc(CNc2nc3ccccc3n2-c2ncnc(Nc3cccc(Cn4ccnn4)c3)n2)c1,0.4 to 2.4 µg/mL
15,N#CCc1ccc(Nc2ncnc(Nc3ccc4c(cnn4Cc4ccccc4)c3)n2)cc1,< 0.4 µg/mL
16,O=C(O)CCc1cccc(Nc2ncnc(Nc3cc(-c4ccco4)[nH]n3)n2)c1,< 0.4 µg/mL
17,COc1cc(Nc2ncnc(-n3c(NCc4ccc(Br)cc4)nc4ccccc43)n2)cc(OC)c1OC,> 4.5 µg/mL
18,COc1cc(Nc2ncnc(-n3c(NCCc4ccccn4)nc4ccccc43)n2)cc(OC)c1OC,> 4.5 µg/mL
19,c1coc(-c2cc(Nc3ncnc(Nc4nc[nH]n4)n3)n[nH]2)c1,0.4 to 2.4 µg/mL
20,COc1cc(Br)ccc1Nc1nc2ccccc2n1-c1ncnc(Nc2cc(OC)c(OC)c(OC)c2)n1,> 4.5 µg/mL
21,Fc1ccc(Nc2ncnc(Nc3ccc4[nH]ncc4c3)n2)cc1Cl,< 0.4 µg/mL
22,COc1cc(Nc2ncnc(Nc3cc(-c4ccc(C(=O)N(C)C)cc4)n[nH]3)n2)cc(OC)c1OC,0.4 to 2.4 µg/mL
23,COc1cc(Nc2ncnc(-c3cccnc3NCc3ccccn3)n2)cc(OC)c1OC,> 4.5 µg/mL
24,COc1ccc2c(c1)nc(NCc1ccc(F)cc1)n2-c1ncnc(Nc2cc(OC)c(OC)c(OC)c2)n1.COc1ccc2nc(NCc3ccc(F)cc3)n(-c3ncnc(Nc4cc(OC)c(OC)c(OC)c4)n3)c2c1,2.4 to 3.5 µg/mL
25,COc1ncnc(Nc2cc(OC)c(OC)c(OC)c2)n1,> 4.5 µg/mL
26,COc1cc(NC(=O)Nc2ncnc(Nc3cc(OC)c(OC)c(OC)c3)n2)cc(OC)c1,> 4.5 µg/mL

row,Compound,IC50
1,COc1cccc(-c2ncnc(Nc3cc(OC)c(OC)c(OC)c3)n2)c1,2.4 to 3.5 µg/mL
2,COc1cc(Nc2ncnc(NCc3ccccc3)n2)cc(OC)c1OC,< 0.4 µg/mL
3,COc1cc(Nc2ncnc(-n3c(N)nc4cc(C(F)(F)F)ccc43)n2)cc(OC)c1OC.COc1cc(Nc2ncnc(-n3c(N)nc4ccc(C(F)(F)F)cc43)n2)cc(OC)c1OC,> 4.5 µg/mL
4,COc1cc(Nc2ncnc(N[C@@H](CO)c3ccccc3)n2)cc(OC)c1OC,> 4.5 µg/mL
5,COc1ccc(CNc2ncnc(Nc3cc(-c4ccco4)[nH]n3)n2)cc1OC,0.4 to 2.4 µg/mL
6,COc1cc(Nc2ncnc(Nc3ccc(Br)cc3)n2)cc(OC)c1OC,0.4 to 2.4 µg/mL
7,COc1ccc(Nc2ncnc(N(C)C3CCN(C)CC3)n2)cc1OC,> 4.5 µg/mL
8,COc1ccc(Nc2ncnc(Nc3cc(OC)c(OC)c(OC)c3)n2)cc1OC,3.5 to 4.5 µg/mL
9,COc1cc(Nc2ncnc(-c3cccnc3Nc3cccc(C#N)c3)n2)cc(OC)c1OC,> 4.5 µg/mL
10,COc1ccc(-c2cc(Nc3ncnc(Nc4cc(OC)c(OC)c(OC)c4)n3)[nH]n2)cc1,0.4 to 2.4 µg/mL
11,COc1ccc(CNc2nc3ccccc3n2-c2ncnc(Nc3cccc(Cc4nnn[nH]4)c3)n2)cc1,0.4 to 2.4 µg/mL
12,CN(c1cccc(Cl)c1)c1ncnc(Nc2ccc3nn(Cc4ccccc4)cc3c2)n1,< 0.4 µg/mL
13,COc1cc(Nc2ncnc(Nc3cc(C)nn3C)n2)cc(OC)c1OC,3.5 to 4.5 µg/mL and > 4.5 µg/mL
14,COc1cc(Nc2ncnc(-n3c(NCc4cccc(Cl)c4)nc4ccccc43)n2)cc(OC)c1OC,> 4.5 µg/mL
15,COc1cc(Nc2ncnc(-n3c(Nc4ccc(C#N)cc4)nc4ccccc43)n2)cc(OC)c1OC,> 4.5 µg/mL
16,CN(c1cccc(Cl)c1)c1ncnc(Nc2ccc(Cl)c(Cl)c2)n1,> 4.5 µg/mL
17,CN(c1ccc2c(cnn2Cc2ccccc2)c1)c1ncnc(Nc2cccc(Br)c2)n1,< 0.4 µg/mL
18,CN(c1cccc(Cl)c1)c1ncnc(Nc2ccc(OC(F)(F)F)cc2)n1,0.4 to 2.4 µg/mL
19,CCOc1ccc(Nc2ncnc(Nc3ccc(OCc4ccccc4)cc3)n2)cc1OCC,0.4 to 2.4 µg/mL
20,COc1cc(Nc2ncnc(-n3c(NCCc4ccccc4)nc4ccccc43)n2)cc(OC)c1OC,0.4 to 2.4 µg/mL
21,COc1cc(Nc2ncnc(-n3c(NCc4cccc(Br)c4)nc4ccccc43)n2)cc(OC)c1OC,3.5 to 4.5 µg/mL
22,COc1ccc(Nc2nc3ccccc3n2-c2ncnc(Nc3cc(OC)c(OC)c(OC)c3)n2)cc1,> 4.5 µg/mL
23,COc1cc(Nc2ncnc(Nc3cccc4ccccc34)n2)cc(OC)c1OC,< 0.4 µg/mL
24,COc1cc(Nc2ncnc(Nc3nc(-c4ccccc4)cs3)n2)cc(OC)c1OC,> 4.5 µg/mL
25,COc1ccc(Nc2ncnc(Nc3cc(Cl)cc(Cl)c3)n2)cc1OC,2.4 to 3.5 µg/mL

# Further lines, results first:
row,IC50,Compound
1,< 0.4 µg/mL,COCCOc1ccc(Nc2ncnc(Nc3ccc(C)c(O)c3)n2)cc1OC
2,0.4 to 2.4 µg/mL,COC(=O)c1cccc(Nc2ncnc(-n3c(NCc4ccccc4)nc4ccccc43)n2)c1
3,> 4.5 µg/mL,COc1cc(Nc2ncnc(-c3cccnc3N)n2)cc(OC)c1OC
4,> 4.5 µg/mL,NC(=O)c1cccc(Nc2ncnc(-n3c(N)nc4ccccc43)n2)c1
5,2.4 to 3.5 µg/mL,COc1ccc(Nc2ncnc(NCC(=O)c3ccccc3)n2)cc1OC
6,0.4 to 2.4 µg/mL,CN(c1cccc(Cl)c1)c1ncnc(NC2CCN(Cc3ccccc3)CC2)n1
7,> 4.5 µg/mL,NC(=O)c1ccc(Nc2ncnc(-c3cccs3)n2)cc1
8,> 4.5 µg/mL,COc1cc(Nc2ncnc(NC(=O)Nc3ccccc3)n2)cc(OC)c1OC
9,> 4.5 µg/mL,COc1cc(Nc2ncnc(-n3c(Nc4ccccc4C(N)=O)nc4ccccc43)n2)cc(OC)c1OC
10,< 0.4 µg/mL,COc1cc(Nc2ncnc(N3CCCc4ccccc43)n2)cc(OC)c1OC
11,> 4.5 µg/mL,COc1ccc(CCNc2ncnc(N3CCCc4cc(C)ccc43)n2)cc1OC
12,> 4.5 µg/mL,COc1cc(Nc2ncnc(Nc3cccc(CN4CCN(C)CC4)c3)n2)cc(OC)c1OC
13,> 4.5 µg/mL,COc1cc(Nc2ncnc(NN3CCOCC3)n2)cc(OC)c1OC
14,> 4.5 µg/mL,O=c1[nH]c2ccccc2n1-c1ncnc(Nc2cc(C(F)(F)F)cc(C(F)(F)F)c2)n1
15,> 4.5 µg/mL,Nc1nc2ccccc2n1-c1ncnc(Cl)n1
16,3.5 to 4.5 µg/mL,COc1ccc(Nc2ncnc(Nc3cc(OC)c(OC)c(OC)c3)n2)cc1OCCN1CCOCC1
17,> 4.5 µg/mL,O=c1[nH]c2ccccc2n1-c1ncnc(Nc2ncccn2)n1
18,> 4.5 µg/mL,COc1cc(Nc2ncnc(-c3cccnc3NCCN3CCCCC3)n2)cc(OC)c1OC
19,> 4.5 µg/mL,COc1cc(Nc2ncnc(-n3c(NC(C)C)nc4ccccc43)n2)cc(OC)c1OC
20,< 0.4 µg/mL,O=C(O)Cc1cccc(Nc2ncnc(Nc3cccc(Br)c3)n2)c1
21,0.4 to 2.4 µg/mL,O=c1[nH]c2ccccc2n1-c1ncnc(Nc2nccc3ccccc23)n1
22,3.5 to 4.5 µg/mL,CCCN(CC1CC1)c1ncnc(Nc2cc(OC)c(OC)c(OC)c2)n1
23,0.4 to 2.4 µg/mL,COc1cc(Nc2ncnc(NC(=O)NCc3ccccc3)n2)cc(OC)c1OC
24,0.4 to 2.4 µg/mL,Nc1nc2ccccc2n1-c1ncnc(Nc2ccc(Cl)cc2)n1
25,> 4.5 µg/mL,COc1cc(Nc2ncnc(-n3cc(C)c4ccccc43)n2)cc(OC)c1OC
26,> 4.5 µg/mL,COc1cc(Nc2ncnc(-n3ncc4ccccc43)n2)cc(OC)c1OC
27,> 4.5 µg/mL,N#Cc1ccc(Nc2ncnc(-n3c(=O)[nH]c4ccccc43)n2)cc1

row,IC50,Compound
1,> 4.5 µg/mL,COC(=O)c1cccc(Nc2ncnc(-n3c(NCc4ccc(OC)cc4)nc4ccccc43)n2)c1
2,> 4.5 µg/mL,COc1cc(Nc2ncnc(-c3cccnc3NCC3CCCCC3)n2)cc(OC)c1OC
3,> 4.5 µg/mL,O=c1[nH]c2ccccc2n1-c1ncnc(Nc2cccc3cccnc23)n1
4,> 4.5 µg/mL,COc1cc(Nc2ncnc(-n3cc(OC(C)=O)c4ccccc43)n2)cc(OC)c1OC
5,< 0.4 µg/mL,COc1cc(Nc2ncnc(Nc3cccc(C)c3)n2)cc(OC)c1OC
6,> 4.5 µg/mL,O=c1[nH]c2ccccc2n1-c1ncnc(Nc2ccc3[nH]ncc3c2)n1
7,> 4.5 µg/mL,CCOC(=O)N1CCC(Nc2ncnc(N3CCCc4cc(C)ccc43)n2)CC1
8,> 4.5 µg/mL,COc1ccc(Nc2ncnc(-n3c(N)nc4ccccc43)n2)cn1
9,< 0.4 µg/mL,CCOC(=O)Cc1ccc(Nc2ncnc(Nc3cc(OC)c(OC)c(OC)c3)n2)cc1
10,> 4.5 µg/mL,Clc1ncnc(Nc2cc(-c3ccccc3)n[nH]2)n1
11,< 0.4 µg/mL,Cc1cccc(Nc2ncnc(N(C)c3cccc(Cl)c3)n2)c1
12,> 4.5 µg/mL,NC(=O)c1ccccc1Nc1ncnc(-n2c(N)nc3ccccc32)n1
13,< 0.4 µg/mL,COc1cc(Nc2ncnc(Nc3cccc(C(=O)O)c3)n2)cc(OC)c1OC
14,> 4.5 µg/mL,COc1cc(Nc2ncnc(N3CCN(C)CC3)n2)cc(OC)c1OC
15,> 4.5 µg/mL,COc1cc(Nc2ncnc(-c3ccccc3)n2)cc(OC)c1
16,3.5 to 4.5 µg/mL and 2.4 to 3.5 µg/mL,COc1cc(Nc2ncnc(-n3c(NC4CCCc5ccccc54)nc4ccccc43)n2)cc(OC)c1OC (stereo not given)
17,0.4 to 2.4 µg/mL,CC(C)Nc1ncccc1-c1ncnc(Nc2ccc(N3CCOCC3)cc2)n1
18,0.4 to 2.4 µg/mL,Nc1nc2ccccc2n1-c1ncnc(Nc2ccc(-c3cnco3)cc2)n1
19,> 4.5 µg/mL,O=c1[nH]c2ccccc2n1-c1ncnc(Nc2ccc(OC(F)(F)F)cc2)n1
20,< 0.4 µg/mL,COc1cc(Nc2ncnc(Nc3cccc(CC(=O)O)c3)n2)cc(OC)c1OC
21,< 0.4 µg/mL,Cc1cccc(Nc2ncnc(Nc3ccc4[nH]ccc4c3)n2)c1
22,> 4.5 µg/mL,COC(=O)c1sccc1Nc1ncnc(N2CCCc3cc(C)ccc32)n1
23,> 4.5 µg/mL,Clc1cc(Cl)cc(Nc2ncnc(-n3cccc3)n2)c1
24,> 4.5 µg/mL,COc1cc(Nc2ncnc(-c3cccnc3Nc3ccc4c(c3)CCC4)n2)cc(OC)c1OC
25,> 4.5 µg/mL,COc1ccc(Nc2ncnc(N(C)c3ccc(S(=O)(=O)O)cc3)n2)cc1OC
26,> 4.5 µg/mL,O=c1[nH]c2ccccc2n1-c1ncnc(Nc2cccc([N+](=O)[O-])c2)n1
27,> 4.5 µg/mL,COc1cc(Nc2ncnc(-n3cc(CCO)c4ccccc43)n2)cc(OC)c1OC
